Where two headings read alike, the source gives them in different places.
Key:
[1] = target: P-gp of Dx5 cells (Homo sapiens, UniProt P08183)
Protocol: (§6) Photoaffinity Labeling with [^25 -I]-iodoarylazidoprazesin and [^3 H]-Azidopine. […] These preparations were incubated at 25° C. for 1 hour in the dark, followed by a 20 min exposure to a 366 nm UV source (UVP, Inc., San Gabriel, Calif.). 50 μl of loading buffer was added and proteins separated on an 8% SDS-polyacrylamide gel, dried, and analyzed by autoradiography.

[2] = target: P-gp of DxP cells (Phe335/336 deletion) (Homo sapiens, UniProt P08183, DEL335-335)
Protocol: as §6

[3] = system: Dx/PAS cells; assay: MTT assay, DxP subclone; format: cell-based, human
Protocol: (§1) Growth Inhibition Assay. Approximately 8000 cells per well were seeded in 96 well plates and incubated with or without drugs for 72 hr at 37° C. in an atmosphere of 5% CO2. Growth inhibition was evaluated by the MTT colorimetric assay in triplicate or quadruplicate as previously described. The absorbance was measured with a ThermoMax microplate reader (Molecular Devices, Menlo Park, Calif.). The IC50 (drug concentration resulting in 50% inhibition of MTT dye formation, compared to controls) was determined directly from semi-logarithmic dose-response curves. The doubling times of MES-SA, D×5, and D×P were determined as previously described.
(§2) Reversal of MDR by Modulators. […] The modulation ratio was obtained by comparing IC50 s in the presence and absence of modulators.
(§3) Clonal Analysis of D×P cells. Subcloning of cells was performed by limiting dilution. Both resistant and revertant clones were analyzed for the MDR phenotype, drug accumulation, and rt-PCR or heteroduplex as described above.

[4] = system: Dx/PCS cells; assay: MTT assay, DxP subclone; format: cell-based, human
Protocol: as §1, §2, §3

[5] = system: Dx/PBS cells; assay: MTT assay, DxP subclone; format: cell-based, human
Protocol: as §1, §2, §3

[6] = system: Dx/PFS cells; assay: MTT assay, DxP subclone; format: cell-based, human
Protocol: as §1, §2, §3

[7] = system: Dx/PMS cells; assay: MTT assay, DxP subclone; format: cell-based, human
Protocol: as §1, §2, §3

[8] = system: Dx/PJS cells; assay: MTT assay, DxP subclone; format: cell-based, human
Protocol: as §1, §2, §3

[9] = system: Dx/PES cells; assay: MTT assay, DxP subclone; format: cell-based, human
Protocol: as §1, §2, §3

[10] = system: Dx/PIS cells; assay: MTT assay, DxP subclone; format: cell-based, human
Protocol: as §1, §2, §3

[11] = system: Dx/PDS cells; assay: MTT assay, DxP subclone; format: cell-based, human
Protocol: as §1, §2, §3

[12] = system: Dx/PGS cells; assay: MTT assay, DxP subclone; format: cell-based, human
Protocol: as §1, §2, §3

[13] = system: MES-SA/DxP5002 (DxP) cells; assay: Growth inhibition (MTT) assay, with or without MDR modulators
Protocol: Cells and Tissue Culture. […] Monolayer cultures of MES-SA cells and its variants were grown in McCoy's medium (Irvine Scientific, Santa Ana, Calif.) supplemented with 10% newborn calf serum (Gibco, Grand Island, N.Y.), 2 mM L-glutamine, and antibiotics(100 U/ml penicillin, 100 μg/ml streptomycin).
Growth Inhibition Assay. Approximately 8000 cells per well were seeded in 96 well plates and incubated with or without drugs for 72 hr at 37° C. in an atmosphere of 5% CO2. Growth inhibition was evaluated by the MTT colorimetric assay in triplicate or quadruplicate as previously described. The absorbance was measured with a ThermoMax microplate reader (Molecular Devices, Menlo Park, Calif.). […] The doubling times of MES-SA, D×5, and D×P were determined as previously described.
as §2

[14] = system: MES-SA cells; assay: as above; format: cell-based, human; conditions: MES-SA cells
Protocol: (§4) Cells and Tissue Culture. Details of the development and characterization of the human cell line MES-SA and its MDR variant MES-SA/Dx5 (D×5), which were derived from sarcoma elements of a uterine mixed Mullerian tumor, are described in Harker and Sikic (1985) Cancer Research 45:3810-3815. MES-SA/DxP5002 (DxP) cells were derived from Dx5.05 cells (D×5 cells selected and maintained at a DOX concentration of 0.5 μM) by step-wise selection in the presence of increasing DOX concentrations (from 40 nM up to 0.5 μM) and a constant PSC 833 concentration at 2 μM over a one-year period. Monolayer cultures of MES-SA cells and its variants were grown in McCoy's medium (Irvine Scientific, Santa Ana, Calif.) supplemented with 10% newborn calf serum (Gibco, Grand Island, N.Y.), 2 mM L-glutamine, and antibiotics(100 U/ml penicillin, 100 μg/ml streptomycin).
as §1, §2

[15] = system: MES-SA/Dx5 (Dx5) cells; assay: as above; format: cell-based, human
Protocol: as §4, §1, §2

[16] = system: DxP cells; assay: Cellular accumulation of [3H]-labeled drugs; format: cell-based, human
Protocol: (§5) Cellular Accumulation of [^3 H]-Daunorubicin, [^3 H]-Vinblastine, and [^3 H]Cyclosporine. lntracellular drug accumulation was quantified using radiolabeled drugs in a modified assay. The cells were seeded in 35×10 mm tissue culture dishes (Falcon, Becton Dickinson, Lincoln Park, N.J.), at 1×10^6 cells/dish. After overnight incubation, the growth medium was replaced with serum-free McCoy's 5A medium supplemented with 40 mM Hepes buffer (Sigma Chemicals, St. Louis, Mo.). Radiolabeled drugs were added at the appropriate concentration and incubated for 1 hr at 37° C. The medium was aspirated and cell pellet solubilized in 4% SDS at 65° C. for 1 hr. Ecolite™ scintillation cocktail (INC Biochemicals, Costa Mesa, Calif.) was added and radioactivity determined on an LS-9000 scintillation counter (Beckman Instruments, Brea, Calif.). All values were normalized to protein content.

[17] = system: Dx5 cells; assay: Rh-123 retention, flow cytometry; format: cell-based, human
Protocol: Flow Cytometric Analysis. The flow cytometric analysis of Rh-123 retention and P-gp expression were determined by a dual laser flow cytometer (FACS-II™; Becton Dickinson Corp., Mountain View, Calif.). Double labeling with Rh-123 and the monoclonal antibody UIC2 (Immunotech Coporation, Westbrook, Me.) was performed as previously described. Briefly, following the Rh-123 incubation step, cells were treated with UIC2 (40 μg/ml) and then reacted with either Texas Red or FITC-conjugated goat anti-mouse IgG2a secondary antibody (Caltag, So. San Francisco, Calif,). Cells were centrifuged through a calf serum cushion, resuspended in 200 μl of modified ice-cold Hank's balanced salt solution, and analyzed by flow cytometry.

[18] = system: Dx5 cells; assay: Cellular accumulation of [3H]-labeled drugs; format: cell-based, human
Protocol: as §5

Sequence of P-gp of DxP cells (Phe335/336 deletion) (P08183 with tags, fused parts or gaps DEL335-335): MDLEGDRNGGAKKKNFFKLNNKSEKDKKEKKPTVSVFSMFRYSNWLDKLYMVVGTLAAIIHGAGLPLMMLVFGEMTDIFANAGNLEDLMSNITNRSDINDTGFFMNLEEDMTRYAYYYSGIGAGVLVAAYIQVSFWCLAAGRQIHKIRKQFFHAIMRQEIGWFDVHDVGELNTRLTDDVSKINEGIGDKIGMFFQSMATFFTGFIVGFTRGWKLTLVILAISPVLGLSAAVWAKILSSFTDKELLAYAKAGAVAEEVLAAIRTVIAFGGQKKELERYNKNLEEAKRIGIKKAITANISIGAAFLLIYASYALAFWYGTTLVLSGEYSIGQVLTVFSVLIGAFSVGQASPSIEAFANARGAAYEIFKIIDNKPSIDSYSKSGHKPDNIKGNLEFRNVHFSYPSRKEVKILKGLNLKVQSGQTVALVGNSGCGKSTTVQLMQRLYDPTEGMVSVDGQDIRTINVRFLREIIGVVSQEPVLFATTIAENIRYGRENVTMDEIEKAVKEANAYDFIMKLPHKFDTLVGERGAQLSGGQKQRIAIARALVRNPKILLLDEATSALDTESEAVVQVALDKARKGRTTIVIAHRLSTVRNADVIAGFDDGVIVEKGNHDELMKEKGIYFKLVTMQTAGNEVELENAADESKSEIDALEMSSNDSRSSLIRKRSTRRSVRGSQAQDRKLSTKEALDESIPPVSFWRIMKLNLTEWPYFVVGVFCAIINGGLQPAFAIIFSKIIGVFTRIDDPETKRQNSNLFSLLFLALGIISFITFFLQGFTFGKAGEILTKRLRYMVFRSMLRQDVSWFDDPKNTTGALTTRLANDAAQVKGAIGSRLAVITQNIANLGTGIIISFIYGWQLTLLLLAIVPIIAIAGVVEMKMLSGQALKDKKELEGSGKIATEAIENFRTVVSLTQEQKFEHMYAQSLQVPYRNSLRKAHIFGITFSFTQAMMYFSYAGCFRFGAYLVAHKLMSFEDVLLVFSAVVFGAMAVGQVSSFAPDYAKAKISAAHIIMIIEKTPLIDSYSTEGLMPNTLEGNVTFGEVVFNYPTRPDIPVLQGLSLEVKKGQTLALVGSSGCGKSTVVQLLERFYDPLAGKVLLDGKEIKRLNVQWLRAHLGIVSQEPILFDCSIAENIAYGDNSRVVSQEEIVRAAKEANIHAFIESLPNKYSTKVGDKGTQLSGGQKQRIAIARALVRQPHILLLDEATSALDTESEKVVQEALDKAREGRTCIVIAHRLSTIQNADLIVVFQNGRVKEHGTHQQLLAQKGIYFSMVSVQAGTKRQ
Sequence of P-gp of Dx5 cells (P08183 whole entry): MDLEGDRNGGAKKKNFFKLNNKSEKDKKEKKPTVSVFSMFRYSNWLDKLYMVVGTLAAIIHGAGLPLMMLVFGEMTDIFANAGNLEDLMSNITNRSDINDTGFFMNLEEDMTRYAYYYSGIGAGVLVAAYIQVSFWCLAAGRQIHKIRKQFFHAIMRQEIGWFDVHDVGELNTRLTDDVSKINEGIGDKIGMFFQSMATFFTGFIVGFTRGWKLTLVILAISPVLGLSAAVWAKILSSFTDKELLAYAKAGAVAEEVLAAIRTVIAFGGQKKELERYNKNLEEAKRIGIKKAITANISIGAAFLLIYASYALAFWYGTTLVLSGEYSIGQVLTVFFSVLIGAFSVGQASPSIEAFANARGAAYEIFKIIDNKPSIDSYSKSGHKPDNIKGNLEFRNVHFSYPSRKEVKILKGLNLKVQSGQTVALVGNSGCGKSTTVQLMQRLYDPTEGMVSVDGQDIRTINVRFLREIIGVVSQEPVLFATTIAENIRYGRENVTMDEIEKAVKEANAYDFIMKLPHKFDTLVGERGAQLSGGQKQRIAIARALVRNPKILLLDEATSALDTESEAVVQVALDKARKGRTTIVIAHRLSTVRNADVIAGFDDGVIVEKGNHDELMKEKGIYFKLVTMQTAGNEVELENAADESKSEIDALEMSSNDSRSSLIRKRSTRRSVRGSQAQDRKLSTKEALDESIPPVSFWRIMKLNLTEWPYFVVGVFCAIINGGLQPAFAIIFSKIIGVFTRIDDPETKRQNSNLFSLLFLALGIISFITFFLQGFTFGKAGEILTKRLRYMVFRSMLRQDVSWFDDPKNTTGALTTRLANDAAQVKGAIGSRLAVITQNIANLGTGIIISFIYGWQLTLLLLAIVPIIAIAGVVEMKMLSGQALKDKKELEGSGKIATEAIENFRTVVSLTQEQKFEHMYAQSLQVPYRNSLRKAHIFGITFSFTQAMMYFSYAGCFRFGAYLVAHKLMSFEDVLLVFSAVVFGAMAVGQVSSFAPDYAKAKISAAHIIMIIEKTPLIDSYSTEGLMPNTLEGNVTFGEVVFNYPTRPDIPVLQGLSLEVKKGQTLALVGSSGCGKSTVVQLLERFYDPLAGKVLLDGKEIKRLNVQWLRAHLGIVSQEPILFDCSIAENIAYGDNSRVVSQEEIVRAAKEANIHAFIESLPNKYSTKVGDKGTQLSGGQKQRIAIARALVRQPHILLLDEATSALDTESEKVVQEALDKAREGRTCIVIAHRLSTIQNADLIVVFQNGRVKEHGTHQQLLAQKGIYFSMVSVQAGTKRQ

**Q.** Which “Effect on [125I]-iodoarylazidoprazosin photoaffinity labeling of P-gp” value (shortened to “Effect … of P-gp”) ([1]; 100 μM) does the source give for CC[C@]1(O)C[C@@H]2CN(CCc3c([nH]c4ccccc34)[C@@](C(=O)OC)(c3cc4c(cc3OC)N(C)[C@H]3[C@@](O)(C(=O)OC)[C@H](OC(C)=O)[C@]5(CC)C=CCN6CC[C@]43[C@@H]65)C2)C1 [Vinblastine] here?
**A.** abolished detectable P-gp labeling

**Q.** What about the “Effect … of P-gp” value ([1]; 0.1 and 10 μM) of the same compound?
**A.** effectively competed

**Q.** And the “Displacement of [3H]-azidopine photoaffinity labeling” value [2]?
**A.** resistant to the displacement

**Q.** What about the “Effect … of P-gp” value ([2]; 100 μM) of the same compound?
**A.** abolished detectable P-gp labeling

**Q.** What about the “Effect … of P-gp” value ([2]; 0.1 and 10 μM) of the same compound?
**A.** enhanced photoaffinity binding

**Q.** What about the “fold resistance relative to MES-SA” value ([3]; + PSC) of the same compound?
**A.** 5 fold

**Q.** What about the “fold resistance relative to MES-SA” value ([3]; no modulator) of the same compound?
**A.** 15 fold

**Q.** And the “fold resistance relative to MES-SA” value ([4]; + PSC)?
**A.** 3 fold

**Q.** What about the “fold resistance relative to MES-SA” value ([4]; no modulator) of the same compound?
**A.** 8 fold

**Q.** And the “fold resistance relative to MES-SA” value ([5]; + PSC)?
**A.** 1 fold

**Q.** And the “fold resistance relative to MES-SA” value ([5]; no modulator)?
**A.** 3 fold

**Q.** And the “fold resistance relative to MES-SA” value ([6]; + PSC)?
**A.** 8 fold

**Q.** And the “fold resistance relative to MES-SA” value ([6]; no modulator)?
**A.** 21 fold

**Q.** And the “fold resistance relative to MES-SA” value ([7]; + PSC)?
**A.** 2 fold

**Q.** What about the “fold resistance relative to MES-SA” value ([7]; no modulator) of the same compound?
**A.** 5 fold

**Q.** And the “fold resistance relative to MES-SA” value ([8]; + PSC)?
**A.** 10 fold

**Q.** And the “fold resistance relative to MES-SA” value ([8]; no modulator)?
**A.** 19 fold

**Q.** And the “fold resistance relative to MES-SA” value ([9]; + PSC)?
**A.** 1 fold

**Q.** What about the “fold resistance relative to MES-SA” value ([9]; no modulator) of the same compound?
**A.** 3 fold

**Q.** And the “fold resistance relative to MES-SA” value ([10]; + PSC)?
**A.** 1 fold

**Q.** And the “fold resistance relative to MES-SA” value ([10]; no modulator)?
**A.** 2 fold

**Q.** And the “fold resistance relative to MES-SA” value ([11]; + PSC)?
**A.** 6 fold

**Q.** What about the “fold resistance relative to MES-SA” value ([11]; no modulator) of the same compound?
**A.** 20 fold

**Q.** What about the “fold resistance relative to MES-SA” value ([12]; + PSC) of the same compound?
**A.** 1 fold

**Q.** And the “fold resistance relative to MES-SA” value ([12]; no modulator)?
**A.** 2 fold

**Q.** And the Fold resistance ([13]; DxP cells, +2 μM PSC 833)?
**A.** 12 fold

**Q.** What about the Fold resistance ([13]; DxP cells, +3 μM cyclosporin A) of the same compound?
**A.** 7 fold

**Q.** And the Fold resistance ([13]; DxP cells, +6 μM Verapamil)?
**A.** 3 fold

**Q.** What about the “Fold resistance” value ([13]; DxP cells, no modulator, relative to MES-SA) of the same compound?
**A.** 14 fold

**Q.** What about the “Dx5/DxP, fold of resistance difference in DxP cells compared with parental Dx5 cells” value ([13]; DxP vs Dx5) of the same compound?
**A.** 17 fold

**Q.** And the IC50 ([14]; Homo sapiens, 72 hr MTT, read-out: IC50 of drug-sensitive MES-SA cells (values in parenthesis))?
**A.** 4 nM

**Q.** What about the Fold resistance ([14]; +2 μM PSC 833) of the same compound?
**A.** 0.3-1 fold

**Q.** And the Fold resistance ([14]; +2 μM PSC 833, listed as vinblastine)?
**A.** 0.5 fold

**Q.** What about the Fold resistance ([14]; +3 μM cyclosporin A) of the same compound?
**A.** 0.5-1 fold

**Q.** What about the Fold resistance ([14]; +6 μM Verapamil) of the same compound?
**A.** 0.4-1 fold

**Q.** What about the “Fold resistance” value ([14]; no modulator, 72 hr MTT) of the same compound?
**A.** 1 fold

**Q.** What about the Fold resistance ([15]; +2 μM PSC 833) of the same compound?
**A.** 1 fold

**Q.** And the Fold resistance ([15]; +3 μM cyclosporin A)?
**A.** 6 fold

**Q.** And the Fold resistance ([15]; +6 μM Verapamil)?
**A.** 4 fold

**Q.** And the “Fold resistance” value ([15]; no modulator, relative to MES-SA)?
**A.** 243 fold

**Q.** Which “Intracellular accumulation in DxP relative to Dx5 cells” value ([16]; [3H]-labeled drug, 1 hr) does the source give for [^3 H]-vinblastine here?
**A.** approximately 3 fold

**Q.** Rhodamine-123 [Rh-123] was tested. Which “Cellular accumulation of Rh-123” value [17] did it give?
**A.** markedly decreased

**Q.** Which results are given for C/C=C/C[C@@H](C)C(=O)[C@H]1C(=O)N[C@@H](C(C)C)C(=O)N(C)CC(=O)N(C)[C@@H](CC(C)C)C(=O)N[C@@H](C(C)C)C(=O)N(C)[C@@H](CC(C)C)C(=O)N[C@@H](C)C(=O)N[C@H](C)C(=O)N(C)[C@@H](CC(C)C)C(=O)N(C)[C@@H](CC(C)C)C(=O)N(C)[C@@H](C(C)C)C(=O)N1C [PSC 833]?
**A.** Modulation of decreased drug accumulation by modulator [18]: complete modulation; Modulation of decreased [3H]-cyclosporin accumulation by modulator ([18]; to levels of DxP and MES-SA cells): completely modulated; Modulation of decreased drug accumulation by modulator ([16]; DxP cells): not modulated; Effect on [125I]-iodoarylazidoprazosin photoaffinity labeling of P-gp ([1]; 100 μM): abolished detectable P-gp labeling; Effect on [125I]-iodoarylazidoprazosin photoaffinity labeling of P-gp ([1]; 0.1 and 10 μM): effectively competed; Displacement of [3H]-azidopine photoaffinity labeling [2]: resistant to the displacement; Effect on [125I]-iodoarylazidoprazosin photoaffinity labeling of P-gp ([2]; 100 μM): abolished detectable P-gp labeling; Effect on [125I]-iodoarylazidoprazosin photoaffinity labeling of P-gp ([2]; 0.1 and 10 μM): enhanced photoaffinity binding; Effect of modulator on Rh-123 accumulation ([17]; PSC 833 2 μM): completely restored; Resistance of cells to the modulating effects of the modulator (in words) ([13]; DxP cells, PSC 833 2 μM, cyclosporin 3 μM, verapamil 6 μM): almost completely resistant; Modulation of MDR by the modulator (in words) ([15]; 2 μM, sensitivity to DOX, vinblastine, paclitaxel, vincristine and colchicine relative to MES-SA): completely restored the sensitivity

Source: patent US5830697A, “P-glycoprotein mutant resistant to cyclosporin modulation” (The Board of Trustees of the Leland Stanford Junior …, priority 1997, dated 1998)
